# Source: patent US10173991B2, “Sulfone amide linked benzothiazole inhibitors of endothelial lipase” (BRISTOL-MYERS SQUIBB COMPANY, priority 2014, dated 2019)
# Target: Endothelial lipase (EL) (Homo sapiens (Human), UniProt Q9Y5X9)
# Experiment: Endothelial lipase (EL) enzymatic assay with fluorescent substrate A10070 in DMPG vesicles
# Assay type: biochemical
# Conditions: not given
# Procedure, shortened: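 Compounds were preincubated with enzyme for 30 min at 37° C before FRET-substrate vesicles (A10070 in DMPG, 0.11 mole fraction) were added. Reaction rates were obtained from the 300–900 sec slope of fluorescence at 490/530 nm.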
# Sequence of Endothelial lipase (EL) (Q9Y5X9 21-500): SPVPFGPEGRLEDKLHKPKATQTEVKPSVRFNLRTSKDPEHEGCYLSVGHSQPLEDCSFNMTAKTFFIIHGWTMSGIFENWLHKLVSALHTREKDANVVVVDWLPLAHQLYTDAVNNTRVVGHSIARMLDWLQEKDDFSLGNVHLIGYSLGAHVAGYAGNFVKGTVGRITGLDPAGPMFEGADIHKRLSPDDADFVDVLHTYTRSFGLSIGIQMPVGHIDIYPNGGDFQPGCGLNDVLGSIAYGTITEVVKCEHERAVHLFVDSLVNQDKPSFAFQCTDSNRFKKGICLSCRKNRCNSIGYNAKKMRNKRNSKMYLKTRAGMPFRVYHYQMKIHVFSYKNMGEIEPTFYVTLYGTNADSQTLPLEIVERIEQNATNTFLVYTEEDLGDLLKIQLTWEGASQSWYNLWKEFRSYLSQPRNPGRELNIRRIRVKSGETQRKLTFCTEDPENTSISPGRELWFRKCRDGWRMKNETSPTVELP
row,SMILES,IC50 [nM]
1,"COC(=O)N(C)c1cccc(-c2ccc3nc(C(C(=O)NCC(=O)NC4CC4)S(C)(=O)=O)sc3c2)c1 (stereo not shown) [Example 544, methyl N-{3-[2-({[(cyclopropyl-carbamoyl)methyl]carbamoyl} (methanesulfonyl)methyl)-1,3-benzothiazol-6-yl]phenyl}-N-methylcarbamate]",19
2,"COCCS(=O)(=O)C(C(=O)NCC(=O)NC1CC1)c1nc2cc(-c3cccnc3C)ccc2s1 (stereo not shown) [Example 91, N-[(cyclopropyl-carbamoyl)methyl]-2-(2-methoxyethane-sulfonyl)-2-[5-(2-methylpyridin-3-yl)-1,3-benzothiazol-2-yl]acetamide]",18
3,"COCCS(=O)(=O)C(C(=O)NCC(=O)NC1CC1)c1nc2ccc(-c3cnc(F)c(C)c3)cc2s1 (stereo not shown) [Example 294, N-[(cyclopropyl-carbamoyl)methyl]-2-[6-(6-fluoro-5-methylpyridin-3-yl)-1,3-benzothiazol-2-yl]-2-(2-methoxyethane-sulfonyl)acetamide]",36
4,"CC(C)S(=O)(=O)C(C(=O)NCC(=O)NC1CC1)c1nc2c(F)cc(-c3ccc(C(=O)N4CCC4)cc3)cc2s1 (stereo not shown) [Example 284, 2-{6-[4-(azetidine-1-carbonyl)phenyl]-4-fluoro-1,3-benzothiazol-2-yl}-N-[(cyclopropyl-carbamoyl)methyl]-2-(propane-2-sulfonyl)acetamide]",12
5,"COCCS(=O)(=O)C(C(=O)NCC(=O)NC1CC1)c1nc2ccc(-c3cccc(N(C)C(=O)OC)c3)cc2s1 (stereo not shown) [Example 545, methyl N-{3-[2-({[(cyclopropyl-carbamoyl)methyl]carbamoyl}(2-methoxyethane-sulfonyl)methyl)-1,3-benzothiazol-6-yl]phenyl}-N-methylcarbamate]",13
6,"COC(=O)Nc1cccc(-c2cc(F)c3nc(C(C(=O)NCC(=O)NC4CC4)S(=O)(=O)N(C)C)sc3c2)c1 (stereo not shown) [Example 503, methyl N-{3-[2-({[(cyclopropyl-carbamoyl)methyl]carbamoyl} (dimethyl-sulfamoyl)methyl)-4-fluoro-1,3-benzothiazol-6-yl]phenyl} carbamate]",21
7,"CCCS(=O)(=O)C(C(=O)NCC(=O)NC1CC1)c1nc2cc(F)c(-c3ccc(NC(=O)OCc4ccccc4)cc3)cc2s1 (stereo not shown) [Example 52, benzyl N-{4-[2-({[(cyclopropyl-carbamoyl)methyl]carbamoyl} (propane-1-sulfonyl)methyl)-5-fluoro-1,3-benzothiazol-6-yl]phenyl} carbamate]",1
8,"CN(C)S(=O)(=O)C(C(=O)NCC(=O)NC1CC1)c1nc2c(F)cc(-c3ccc(N4CCCCC4=O)cc3)cc2s1 (stereo not shown) [Example 499, N-[(cyclopropyl-carbamoyl)methyl]-2-(dimethyl-sulfamoyl)-2-{4-fluoro-6-[4-(2-oxopiperidin-1-yl)phenyl]-1,3-benzothiazol-2-yl} acetamide]",4
9,"COCCS(=O)(=O)C(C(=O)NCC(=O)NC1CC1)c1nc2cc(-c3ccn(C)c(=O)c3)ccc2s1 (stereo not shown) [Example 336, N-[(cyclopropyl-carbamoyl)methyl]-2-(2-methoxyethane-sulfonyl)-2-[5-(1-methyl-2-oxo-1,2-dihydropyridin-4-yl)-1,3-benzothiazol-2-yl]acetamide]",21
10,"COCCS(=O)(=O)C(C(=O)NCC(=O)NC1CC1)c1nc2ccc(-c3ccc(C4CC4)nc3)cc2s1 (stereo not shown) [Example 300, N-[(cyclopropyl-carbamoyl)methyl]-2-[6-(6-cyclopropyl-pyridin-3-yl)-1,3-benzothiazol-2-yl]-2-(2-methoxyethane-sulfonyl)acetamide]",125
11,"COc1cncc(-c2cc3sc(C(C(=O)NCC(=O)NC4CC4)S(C)(=O)=O)nc3cc2F)c1 (stereo not shown) [Example 324, N-[(cyclopropyl-carbamoyl)methyl]-2-[5-fluoro-6-(5-methoxypyridin-3-yl)-1,3-benzothiazol-2-yl]-2-methanesulfonyl-acetamide]",15
12,"CC(C)S(=O)(=O)C(C(=O)NCC(=O)NC1CC1)c1nc2cc(-c3cn(C)c(=O)c4ccccc34)c(F)cc2s1 (stereo not shown) [Example 276, N-[(cyclopropyl-carbamoyl)methyl]-2-[6-fluoro-5-(2-methyl-1-oxo-1,2-dihydro-isoquinolin-4-yl)-1,3-benzothiazol-2-yl]-2-(propane-2-sulfonyl) acetamide]",8
13,"COCCS(=O)(=O)C(C(=O)NCC(=O)NC1CC1)c1nc2cc(-c3ccc(F)cc3)ccc2s1 (stereo not shown) [Example 135, N-[(cyclopropyl-carbamoyl)methyl]-2-[5-(4-fluorophenyl)-1,3-benzothiazol-2-yl]-2-(2-methoxyethane-sulfonyl) acetamide]",49
14,"COCCS(=O)(=O)C(C(=O)NCC(=O)NC1CC1)c1nc2ccc(-c3ccc(C(=O)N4C[C@@H](C)O[C@@H](C)C4)cc3)cc2s1 (stereo partly drawn) [Example 569, N-[(cyclopropyl-carbamoyl)methyl]-2-(6-{4-[(2R,6S)-2,6-dimethyl-morpholine-4-carbonyl]phenyl}-1,3-benzothiazol-2-yl)-2-(2-methoxyethane-sulfonyl)acetamide]",20
15,"CN(C)S(=O)(=O)C(C(=O)NCC(=O)NC1CC1)c1nc2c(F)cc(-c3ccc4c(=O)n(C)ccc4c3)cc2s1 (stereo not shown) [Example 493, N-[(cyclopropyl-carbamoyl)methyl]-2-(dimethyl-sulfamoyl)-2-[4-fluoro-6-(2-methyl-1-oxo-1,2-dihydro-isoquinolin-6-yl)-1,3-benzothiazol-2-yl]acetamide]",1
16,"O=C(CNC(=O)C(c1nc2ccc(-c3cccnc3F)cc2s1)S(=O)(=O)N1CCOCC1)NC1CC1 (stereo not shown) [Example 482, N-[(cyclopropyl-carbamoyl)methyl]-2-[6-(2-fluoropyridin-3-yl)-1,3-benzothiazol-2-yl]-2-(morpholine-4-sulfonyl)acetamide]",173

# Next, values leading:
row,IC50 [nM],SMILES
1,7,"O=C(CNC(=O)C(c1nc2ccc(-c3ccc4c(c3)CN(C3CC3)C4=O)cc2s1)S(=O)(=O)c1ccc(F)cc1)NC1CC1 (stereo not shown) [Example 597, 2-[6-(2-cyclopropyl-1-oxo-2,3-dihydro-1H-isoindol-5-yl)-1,3-benzothiazol-2-yl]-N-[(cyclopropyl-carbamoyl)methyl]-2-(4-fluorobenzene-sulfonyl)acetamide]"
2,33,"CC(C)S(=O)(=O)C(C(=O)NCC(=O)NC1CC1)c1nc2cc(F)c(-c3cnc(C4CC4)nc3)cc2s1 (stereo not shown) [Example 243, N-[(cyclopropyl-carbamoyl)methyl]-2-[6-(2-cyclopropyl-pyrimidin-5-yl)-5-fluoro-1,3-benzothiazol-2-yl]-2-(propane-2-sulfonyl) acetamide]"
3,40,"CC(C)S(=O)(=O)C(C(=O)NCC(=O)NC1CC1)c1nc2cc(-c3ccc(C#N)cc3)c(F)cc2s1 (stereo not shown) [Example 275, 2-[5-(4-cyanophenyl)-6-fluoro-1,3-benzothiazol-2-yl]-N-[(cyclopropyl-carbamoyl)methyl]-2-(propane-2-sulfonyl)acetamide]"
4,36,"COCCS(=O)(=O)C(C(=O)NCC(=O)NCCOC(C)C)c1nc2cc(-c3ccc(=O)n(C)c3)c(F)cc2s1 (stereo not shown) [Example 355, 2-[6-fluoro-5-(1-methyl-6-oxo-1,6-dihydropyridin-3-yl)-1,3-benzothiazol-2-yl]-2-(2-methoxyethane-sulfonyl)-N-({[2-(propan-2-yloxy)ethyl]carbamoyl}methyl)acetamide]"
5,11,"COCCS(=O)(=O)C(C(=O)NCC(=O)NC1CC1)c1nc2cc(C(F)(F)F)c(-c3cccc(C(=O)N(C)C)c3)cc2s1 (stereo not shown) [Example 157, 3-[2-({[(cyclopropyl-carbamoyl)methyl]carbamoyl}(2-methoxyethane-sulfonyl)methyl)-5-(trifluoromethyl)-1,3-benzothiazol-6-yl]-N,N-dimethylbenzamide]"
6,3,"COCCS(=O)(=O)C(C(=O)NCC(=O)NC1CC1)c1nc2cc(F)c(-c3ccc(C(=O)NCCc4ccccc4)cc3)cc2s1 (stereo not shown) [Example 573, 4-[2-({[(cyclopropyl-carbamoyl)methyl]carbamoyl}(2-methoxyethane-sulfonyl)methyl)-5-fluoro-1,3-benzothiazol-6-yl]-N-(2-phenylethyl) benzamide]"
7,15,"COCCS(=O)(=O)C(C(=O)NCC(=O)NC1CC1)c1nc2ccc(-c3ccncc3Cl)cc2s1 (stereo not shown) [Example 288, 2-[6-(3-chloropyridin-4-yl)-1,3-benzothiazol-2-yl]-N-[(cyclopropyl-carbamoyl)methyl]-2-(2-methoxyethane-sulfonyl)acetamide]"
8,9,"COC(=O)Nc1cccc(-c2ccc3nc(C(C(=O)NCC(=O)NC4CC4)S(=O)(=O)Cc4cccc(C#N)c4)sc3c2)c1 (stereo not shown) [Example 278, methyl N-(3-{2-[(3-cyanophenyl)methanesulfonyl ({[(cyclopropyl-carbamoyl)methyl]carbamoyl})methyl]-1,3-benzothiazol-6-yl}phenyl)carbamate]"
9,13,"COCCS(=O)(=O)C(C(=O)NCC(=O)NC1COC1)c1nc2ccc(-c3ccc(F)nc3)cc2s1 (stereo not shown) [Example 384, 2-[6-(6-fluoropyridin-3-yl)-1,3-benzothiazol-2-yl]-2-(2-methoxyethane-sulfonyl)-N-{[(oxetan-3-yl)carbamoyl]methyl} acetamide]"
10,41,"Cc1ncc(-c2cc(C)c3nc(C(C(=O)NCC(=O)NC4CC4)S(=O)(=O)c4ccc(F)cc4)sc3c2)cn1 (stereo not shown) [Example 469, N-[(cyclopropyl-carbamoyl)methyl]-2-(4-fluorobenzene-sulfonyl)-2-[4-methyl-6-(2-methylpyrimidin-5-yl)-1,3-benzothiazol-2-yl]acetamide]"

# Same assay, conditions: EL from conditioned media of HT-1080 cells; 30 min preincubation at 37° C.
row,IC50 [nM],SMILES
1,3,"COCCS(=O)(=O)C(C(=O)NCC(=O)NC1CC1)c1nc2ccc(-c3ccc(N(C)C(=O)OC(C)(C)C)cc3)cc2s1 (stereo not shown) [Example 60, tert-Butyl N-{4-[2-({[(cyclopropylcarbamoyl)methyl]carbamoyl}(2-methoxyethanesulfonyl)methyl)-1,3-benzothiazol-6-yl]phenyl}-N-methylcarbamate]"
2,26,"O=C(CNC(=O)C(c1nc2ccc(-c3ccc(F)nc3)cc2s1)S(=O)(=O)Cc1ccccc1)NC1CC1 (stereo not shown) [Example 55, N-[(Cyclopropylcarbamoyl)methyl]-2-[6-(6-fluoropyridin-3-yl)-1,3-benzothiazol-2-yl]-2-phenylmethanesulfonylacetamide]"
